Laboratory results as given in patent US11597706B2, “Compounds and compositions for treating conditions associated with NLRP activity” (Novartis AG, priority 2016, dated 2023).
pIC50: −log10 of the molar value.

Target: T1, hNLRP3 (THP-1, IL-1β) (Homo sapiens, UniProt Q96P20)
T1 construct: THP-1 cells were purchased from the American Type Culture Collection; host or cells: THP-1 cells, PMA-differentiated, stimulated with gramicidin
Assay: IL-1β production in PMA-differentiated THP-1 cells stimulated with gramicidin
Format: cell-based
Details: Table 1, gramicidin 5 μM, IL-1β readout
Protocol: IL-1β Production in PMA-Differentiated THP-1 Cells Stimulated With Gramicidin.
Cell culture-THP-1 cells were purchased from the American Type Culture Collection and sub-cultured according to instructions from the supplier. Prior to experiments, cells were cultured in RPMI 1640 containing 10% heat inactivated FBS, penicillin (100 units/ml) and streptomycin (100 μg/ml), and maintained in log phase prior to experimental setup. Prior to the experiment THP-1 were treated with PMA (Phorbol 12-myristate 13-acetate) (10 μg/ml) for 24 hours. The day of the experiment the media was removed and attaching cells were treated with trypsin for 2 minutes, cells were then collected, washed with PBS (phosphate buffer saline), spin down, resuspended in 2% heat inactivated FBS with RPMI at a concentration of 1×10^6 cells/ml, and 100 μl was plated in a 96 well plate. Cells were incubated with compounds for 1 hours and then stimulated with Gramicidin (5 μM) (Enzo) for 2 hours. Cell free supernatant was collected and the production of IL-1β was evaluated by ELISA. Compounds were dissolved in dimethyl sulfoxide (DMSO) and added to the culture medium to achieve desired concentration (e.g. 100, 30, 10, 3, 1, 0.3 or 0.1 μM). A vehicle only control was run concurrently with each experiment. Final DMSO concentration was 1%.
THP-1 cells were purchased from the American Type Culture Collection and sub-cultured according to instructions from the supplier. Prior to experiments, cells were cultured in complete RPMI 1640 (containing 10% heat inactivated FBS, penicillin (100 units/ml) and streptomycin (100 μg/ml)), and maintained in log phase prior to experimental setup. Prior to the experiment THP-1 were treated with PMA (Phorbol 12-myristate 13-acetate) (20 ng/ml) for 16-18 hours. On the day of the experiment the media was removed and adherent cells were detached with trypsin for 5 minutes. Cells were then harvested, washed with complete RPMI 1640, spun down, resuspended in RPMI 1640 (containing 2% heat inactivated FBS, penicillin (100 units/ml) and streptomycin (100 μg/ml). The cells were plated in a 384-well plate at a density of 50,000 cells/well (final assay volume 50 μl). Compounds were dissolved in dimethyl sulfoxide (DMSO) and added to the culture medium to achieve desired concentration (e.g. 100, 33, 11, 3.7, 1.2, 0.41, 0.14, 0.046, 0.015, 0.0051, 0.0017 μM). Cells were incubated with compounds for 1 hour and then stimulated with gramicidin (5 μM) (Enzo) for 2 hours. Cell free supernatant was collected and the production of IL-1β was evaluated by HTRF (cisbio). A vehicle only control was run concurrently with each experiment. Final DMSO concentration was 0.38%.

T1 sequence (Q96P20 whole entry): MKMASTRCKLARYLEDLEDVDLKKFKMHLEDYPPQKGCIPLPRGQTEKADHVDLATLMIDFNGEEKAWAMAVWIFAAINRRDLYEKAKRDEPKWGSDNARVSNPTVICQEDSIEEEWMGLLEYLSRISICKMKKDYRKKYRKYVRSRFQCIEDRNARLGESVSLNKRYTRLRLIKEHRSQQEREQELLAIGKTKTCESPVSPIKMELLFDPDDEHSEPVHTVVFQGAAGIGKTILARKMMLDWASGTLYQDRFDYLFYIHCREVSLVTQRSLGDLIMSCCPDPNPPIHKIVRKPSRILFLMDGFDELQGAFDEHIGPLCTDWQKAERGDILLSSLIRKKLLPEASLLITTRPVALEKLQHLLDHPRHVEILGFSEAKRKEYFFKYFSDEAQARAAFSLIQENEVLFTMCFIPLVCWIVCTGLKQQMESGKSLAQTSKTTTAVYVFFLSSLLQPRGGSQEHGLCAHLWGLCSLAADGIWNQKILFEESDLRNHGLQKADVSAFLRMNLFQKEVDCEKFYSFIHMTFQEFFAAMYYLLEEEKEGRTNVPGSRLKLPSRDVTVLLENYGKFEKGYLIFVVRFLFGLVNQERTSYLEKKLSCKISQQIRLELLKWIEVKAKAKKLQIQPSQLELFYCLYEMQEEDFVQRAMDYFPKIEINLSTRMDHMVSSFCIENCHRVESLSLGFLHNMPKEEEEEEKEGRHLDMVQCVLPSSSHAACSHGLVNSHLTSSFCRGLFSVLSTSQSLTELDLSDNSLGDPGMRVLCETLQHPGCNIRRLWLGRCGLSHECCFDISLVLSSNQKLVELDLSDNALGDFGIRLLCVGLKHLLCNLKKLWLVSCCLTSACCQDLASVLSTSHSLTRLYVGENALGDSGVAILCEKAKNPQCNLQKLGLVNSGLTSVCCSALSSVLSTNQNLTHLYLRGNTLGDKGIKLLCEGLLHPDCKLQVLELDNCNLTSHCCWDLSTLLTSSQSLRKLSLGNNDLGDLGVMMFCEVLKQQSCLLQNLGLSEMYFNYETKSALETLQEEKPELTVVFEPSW

pIC50 | SMILES
> 6.00 | CC(C)(O)c1cc(C#N)cc(S(=O)(=O)NC(=O)Nc2c3c(c(Cl)c4c2CCC4)CCC3)c1 [Compound 110, N-(8-chloro-1,2,3,5,6,7-hexahydros-indacen-4-ylcarbamoyl)-3-cyano-5-(2-hydroxypropan-2-yl)benzenesulfonamide]
> 6.00 | CC(C)(O)c1cccc(S(=O)(=O)NC(=O)Nc2c3c(c(F)c4c2CCC4)CCC3)c1 [Compound 111, N-(8-fluoro-1,2,3,5,6,7-hexahydros-indacen-4-ylcarbamoyl)-3-(2-hydroxypropan-2-yl)benzenesulfonamide]
> 6.00 | CC(C)(O)c1cc(C#N)cc(S(=O)(=O)NC(=O)Nc2c3c(c(F)c4c2CCC4)CCC3)c1 [Compound 112, 3-cyano-N-(8-fluoro-1,2,3,5,6,7-hexahydros-indacen-4-ylcarbamoyl)-5-(2-hydroxypropan-2-yl)benzenesulfonamide]
> 6.00 | CC(C)(O)c1cc(Cl)cc(S(=O)(=O)NC(=O)Nc2c3c(c(F)c4c2CCC4)CCC3)c1 [Compound 113, 3-chloro-N-(8-fluoro-1,2,3,5,6,7-hexahydros-indacen-4-ylcarbamoyl)-5-(2-hydroxypropan-2-yl)benzenesulfonamide]
> 6.00 | CC(C)(O)c1cc(F)cc(S(=O)(=O)NC(=O)Nc2c3c(c(F)c4c2CCC4)CCC3)c1 [Compound 114, 3-fluoro-N-(8-fluoro-1,2,3,5,6,7-hexahydros-indacen-4-ylcarbamoyl)-5-(2-hydroxypropan-2-yl)benzenesulfonamide]
> 6.00 | CC(C)c1cccc(C(C)C)c1NC(=O)NS(=O)(=O)c1cc(C#N)cc(C(C)(C)O)c1 [Compound 115, 3-cyano-N-(2,6-diisopropylphenylcarbamoyl)-5-(2-hydroxypropan-2-yl)benzenesulfonamide]
> 6.00 | CC(C)c1cc(C#N)cc(C(C)C)c1NC(=O)NS(=O)(=O)c1cc(C#N)cc(C(C)(C)O)c1 [Compound 116, 3-cyano-N-(4-cyano-2,6-diisopropylphenylcarbamoyl)-5-(2-hydroxypropan-2-yl)benzenesulfonamide]
> 6.00 | CC(C)c1cc(F)cc(C(C)C)c1NC(=O)NS(=O)(=O)c1cc(C#N)cc(C(C)(C)O)c1 [Compound 117, 3-cyano-N-(4-fluoro-2,6-diisopropylphenylcarbamoyl)-5-(2-hydroxypropan-2-yl)benzenesulfonamide]
> 6.00 | CC(C)c1cccc(C(C)C)c1NC(=O)NS(=O)(=O)c1cc(Cl)cc(C(C)(C)O)c1 [Compound 120, 3-chloro-N-(2,6-diisopropylphenylcarbamoyl)-5-(2-hydroxypropan-2-yl)benzenesulfonamide]
> 6.00 | CC(C)c1cc(F)cc(C(C)C)c1NC(=O)NS(=O)(=O)c1cc(Cl)cc(C(C)(C)O)c1 [Compound 123, 3-chloro-N-(4-fluoro-2,6-diisopropylphenylcarbamoyl)-5-(2-hydroxypropan-2-yl)benzenesulfonamide]
> 6.00 | CC(C)c1cc(C#N)cc(C(C)C)c1NC(=O)NS(=O)(=O)c1cc(F)cc(C(C)(C)O)c1 [Compound 126]
> 6.00 | CC(C)c1cc(F)cc(C(C)C)c1NC(=O)NS(=O)(=O)c1cc(F)cc(C(C)(C)O)c1 [Compound 127, 3-fluoro-N-(4-fluoro-2,6-diisopropylphenylcarbamoyl)-5-(2-hydroxypropan-2-yl)benzenesulfonamide]
> 6.00 | CC(C)(O)c1ccc(F)c(S(=O)(=O)NC(=O)Nc2c3c(cc4c2CCC4)CCC3)c1 [Compound 131, 1-[[2-fluoro-5-(2-hydroxypropan-2-yl)benzene]sulfonyl]-3-(1,2,3,5,6,7-hexahydro-s-indacen-4-yl)urea]

Same assay, conditions: Table 2, gramicidin 5 μM, IL-1β readout

pIC50 | SMILES
> 6.00 | CC(C)c1ccc(F)c(C(C)C)c1NC(=O)NS(=O)(=O)c1cc(Cl)cc(C(C)(C)O)c1 [Compound 137, 3-chloro-N-(3-fluoro-2,6-diisopropylphenylcarbamoyl)-5-(2-hydroxypropan-2-yl)benzenesulfonamide]
> 6.00 | CC(C)c1cc(C#N)cc(C(C)C)c1NC(=O)NS(=O)(=O)c1cc(Cl)cc(C(C)(C)O)c1 [Compound 138, 3-chloro-N-(4-cyano-2,6-diisopropylphenylcarbamoyl)-5-(2-hydroxypropan-2-yl)benzenesulfonamide]
> 6.00 | CC(C)c1ccc(F)c(C(C)C)c1NC(=O)NS(=O)(=O)c1cccc(C(C)(C)O)c1 [Compound 141, N-(3-fluoro-2,6-diisopropylphenylcarbamoyl)-3-(2-hydroxypropan-2-yl)benzenesulfonamide]
> 6.00 | CC(C)(O)c1cc(C#N)cc(S(=O)(=O)NC(=O)Nc2c3c(cc4c2CCC4)CCC3)c1 [Compound 142]
> 6.00 | CC(C)(O)c1cc(C(C)(C)O)cc(S(=O)(=O)NC(=O)Nc2c3c(cc4c2CCC4)CCC3)c1 [Compound 143]
> 6.00 | CC(C)c1ccc(F)c(C(C)C)c1NC(=O)NS(=O)(=O)c1cc(F)cc(C(C)(C)O)c1 [Compound 144, 3-fluoro-N-(3-fluoro-2,6-diisopropylphenylcarbamoyl)-5-(2-hydroxypropan-2-yl)benzenesulfonamide]
> 6.00 | CC(C)c1cc(Cl)cc(C(C)C)c1NC(=O)NS(=O)(=O)c1cc(C#N)cc(C(C)(C)O)c1 [Compound 145, N-(4-chloro-2,6-diisopropylphenylcarbamoyl)-3-cyano-5-(2-hydroxypropan-2-yl)benzenesulfonamide]
> 6.00 | CC(C)(O)c1cc(N2CCOCC2)cc(S(=O)(=O)NC(=O)Nc2c3c(cc4c2CCC4)CCC3)c1 [Compound 146]
> 6.00 | CC(C)c1cc(C#N)cc(C(C)C)c1NC(=O)NS(=O)(=O)c1cccc(C(C)(C)O)c1 [Compound 147, N-(4-cyano-2,6-diisopropylphenylcarbamoyl)-3-(2-hydroxypropan-2-yl)benzenesulfonamide]
5.30 to 6.00 | CC(C)c1ccc(F)c(C(C)C)c1NC(=O)NS(=O)(=O)c1cc(C#N)cc(C(C)(C)O)c1 [Compound 148, 3-cyano-N-(3-fluoro-2,6-diisopropylphenylcarbamoyl)-5-(2-hydroxypropan-2-yl)benzenesulfonamide]
5.30 to 6.00 | CC(C)(O)c1cc(-c2ccncc2)cc(S(=O)(=O)NC(=O)Nc2c3c(cc4c2CCC4)CCC3)c1 [Compound 149, N-(1,2,3,5,6,7-hexahydro-sindacen-4-ylcarbamoyl)-3-(2-hydroxypropan-2-yl)-5-(pyridin-4-yl)benzenesulfonamide]
5.30 to 6.00 | CC(C)c1cc(Cl)cc(C(C)C)c1NC(=O)NS(=O)(=O)c1cc(F)cc(C(C)(C)O)c1 [Compound 150, N-(4-chloro-2,6-diisopropylphenylcarbamoyl)-3-fluoro-5-(2-hydroxypropan-2-yl)benzenesulfonamide]
5.30 to 6.00 | CC(C)(O)c1cc(-c2ccccc2)cc(S(=O)(=O)NC(=O)Nc2c3c(cc4c2CCC4)CCC3)c1 [Compound 151, N-(1,2,3,5,6,7-hexahydro-sindacen-4-ylcarbamoyl)-5-(2-hydroxypropan-2-yl)biphenyl-3-sulfonamide]
5.30 to 6.00 | CC(C)c1ccc(F)c(C(C)C)c1NC(=O)NS(=O)(=O)c1cc(-c2ccccc2)cc(C(C)(C)O)c1 [Compound 153, N-(3-fluoro-2,6-diisopropylphenylcarbamoyl)-5-(2-hydroxypropan-2-yl)biphenyl-3-sulfonamide]
